Measurements published in the NIST ThermoML archive (doi:10.1021/je030173e).

What was measured:
[1] = xn = mol fraction of the nth substance listed

COCCOC [1,2-dimethoxyethane]
Settings	surface tension liquid-gas [mN/m]
298.15 K	23.79
308.15 K	22.91
318.15 K	21.89

O [water] + COCCO
[1], x2 = 0
Settings	surface tension liquid-gas [mN/m]
298.15 K	71.99
308.15 K	70.38
318.15 K	68.82

COCCOCCO [2-(2-methoxyethoxy)ethanol] + O
surface tension liquid-gas [mN/m], [1]
Settings	298.15 K	308.15 K	318.15 K
x1 = 0.0374	58.57	57.12	55.97
x1 = 0.0558	55.28	53.9	52.21
x1 = 0.1191	45.14	43.86	43.13
x1 = 0.1951	41.05	39.78	38.96
x1 = 0.3021	40.02	38.8	38.55
x1 = 0.4427	38.27	37.12	36.31
x1 = 0.491	37.57	36.46	35.26
x1 = 0.5502	36.87	35.92	34.53
x1 = 0.7494	35.37	34.49	33.45
x1 = 0.8564	35.02	34.18	33.12
x1 = 1	34.73	33.91	32.95

COCCOCCO [2-(2-methoxyethoxy)ethanol]
Settings	surface tension liquid-gas [mN/m]
298.15 K	34.73
308.15 K	33.91
318.15 K	32.95

COCCO [2-methoxyethan-1-ol]
Settings	surface tension liquid-gas [mN/m]
298.15 K	30.82
308.15 K	30.02
318.15 K	29.1

O [water] + COCCOCCO
[1], x2 = 0
Settings	surface tension liquid-gas [mN/m]
298.15 K	71.99
308.15 K	70.38
318.15 K	68.82

COCCOCCOCCO [2-[2-(2-methoxyethoxy)ethoxy]ethanol]
Settings	surface tension liquid-gas [mN/m]
298.15 K	36.28
308.15 K	35.79
318.15 K	35.21

COCCOC [1,2-dimethoxyethane] + O
surface tension liquid-gas [mN/m], [1]
Settings	x1 = 0.047	x1 = 0.066	x1 = 0.0759	x1 = 0.1286	x1 = 0.1942	x1 = 0.2612	x1 = 0.4132	x1 = 0.6313	x1 = 1
298.15 K	48.35	42.42	40.62	31.96	28.55	27.81	26.08	25.41	23.79
308.15 K	46.83	40.97	39.26	30.69	27.43	26.81	25.12	24.49	22.91
318.15 K	46.47	40.62	37.71	29.26	26.53	25.92	24.78	23.6	21.89

O [water] + COCCOCCOCCO
[1], x2 = 0
Settings	surface tension liquid-gas [mN/m]
298.15 K	71.99
308.15 K	70.38
318.15 K	68.82

COCCO [2-methoxyethan-1-ol] + O
surface tension liquid-gas [mN/m], [1]
Settings	298.15 K	308.15 K	318.15 K
x1 = 0.0509	56.33	55.17	53.9
x1 = 0.0559	55.11	54.04	52.82
x1 = 0.1052	46.86	45.88	44.8
x1 = 0.1494	43.31	42.37	41.35
x1 = 0.2215	39.7	38.81	37.83
x1 = 0.3373	36.75	35.89	34.92
x1 = 0.4783	35.02	34.18	33.22
x1 = 0.6258	32.91	32.02	31.13
x1 = 0.7814	31.78	30.96	30.02
x1 = 0.8912	31.02	30.21	29.28
x1 = 1	30.82	30.02	29.1

COCCOCCOCCO [2-[2-(2-methoxyethoxy)ethoxy]ethanol] + O
surface tension liquid-gas [mN/m], [1]
Settings	x1 = 0.0564	x1 = 0.0964	x1 = 0.1673	x1 = 0.3525	x1 = 0.474	x1 = 0.5536	x1 = 0.6606	x1 = 0.7512	x1 = 0.8736	x1 = 1
298.15 K	54.62	47.43	41.73	40.45	39.1	37.76	37.13	36.91	36.69	36.28
308.15 K	53.11	45.98	40.46	39.45	38.29	37.04	36.49	36.35	36.18	35.79
318.15 K	51.53	44.95	39.01	38.12	37.42	36.12	35.85	35.46	35.29	35.21

O [water] + COCCOC
[1], x2 = 0
Settings	surface tension liquid-gas [mN/m]
298.15 K	71.99
308.15 K	70.38
318.15 K	68.82

O [water]
Settings	surface tension liquid-gas [mN/m]
298.15 K	71.99
308.15 K	70.38
318.15 K	68.82
